Earlier results in patent publication US7129355B2, “Process for preparing kifunensine intermediate and kifunensine therefrom” (Industrial Research Limited, priority 2002, dated 2006).

Tested on: plant mannosidase II
Conditions: Elbein et al., J. Biol. Chem. 265, 15599, 1990

O=C1N[C@@H]2[C@@H](O)[C@@H](O)[C@H](O)[C@@H](CO)N2C1=O [Kifunensine]
activity toward plant mannosidase II: inactive
